Test results from publication PMC8397297 (ACS Chemical Neuroscience, 2021).

Tests used:
[1] = molecular target: T1, mGAT2 (Mus musculus, UniProt P31651); assay: [3H]GABA uptake assay in HEK-293 cells stably expressing mGAT2; format: cell-based; conditions: for IC50: [3H]GABA uptake, read-out: pIC50 ± SEM mGAT2 (converted)
T1 construct: expressed in transfected cells; host or cells: HEK-293
T1 sequence (P31651 1-614): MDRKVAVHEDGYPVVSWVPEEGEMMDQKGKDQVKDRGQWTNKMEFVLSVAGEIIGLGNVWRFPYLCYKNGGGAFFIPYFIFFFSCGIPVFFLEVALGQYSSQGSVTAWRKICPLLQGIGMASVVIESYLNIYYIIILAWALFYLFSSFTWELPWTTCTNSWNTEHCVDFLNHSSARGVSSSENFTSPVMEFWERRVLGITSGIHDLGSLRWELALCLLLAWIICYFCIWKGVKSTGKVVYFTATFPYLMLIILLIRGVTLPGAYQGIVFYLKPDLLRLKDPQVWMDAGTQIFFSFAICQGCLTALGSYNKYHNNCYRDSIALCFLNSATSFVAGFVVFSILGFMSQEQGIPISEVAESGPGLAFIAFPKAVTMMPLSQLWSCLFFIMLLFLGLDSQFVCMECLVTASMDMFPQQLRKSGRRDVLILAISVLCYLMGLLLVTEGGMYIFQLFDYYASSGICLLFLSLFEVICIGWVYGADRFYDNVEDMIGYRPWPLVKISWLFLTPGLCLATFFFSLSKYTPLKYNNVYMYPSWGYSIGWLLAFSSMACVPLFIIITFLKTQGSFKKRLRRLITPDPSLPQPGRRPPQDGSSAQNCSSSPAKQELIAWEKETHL

[2] = molecular target: T2, mGAT4 (Mus musculus, UniProt P31650); assay: [3H]GABA uptake assay in HEK-293 cells stably expressing mGAT4; format: cell-based; conditions: for IC50: [3H]GABA uptake, read-out: pIC50 ± SEM mGAT4 (converted)
T2 construct: expressed in transfected cells; host or cells: HEK-293
T2 sequence (P31650 1-627): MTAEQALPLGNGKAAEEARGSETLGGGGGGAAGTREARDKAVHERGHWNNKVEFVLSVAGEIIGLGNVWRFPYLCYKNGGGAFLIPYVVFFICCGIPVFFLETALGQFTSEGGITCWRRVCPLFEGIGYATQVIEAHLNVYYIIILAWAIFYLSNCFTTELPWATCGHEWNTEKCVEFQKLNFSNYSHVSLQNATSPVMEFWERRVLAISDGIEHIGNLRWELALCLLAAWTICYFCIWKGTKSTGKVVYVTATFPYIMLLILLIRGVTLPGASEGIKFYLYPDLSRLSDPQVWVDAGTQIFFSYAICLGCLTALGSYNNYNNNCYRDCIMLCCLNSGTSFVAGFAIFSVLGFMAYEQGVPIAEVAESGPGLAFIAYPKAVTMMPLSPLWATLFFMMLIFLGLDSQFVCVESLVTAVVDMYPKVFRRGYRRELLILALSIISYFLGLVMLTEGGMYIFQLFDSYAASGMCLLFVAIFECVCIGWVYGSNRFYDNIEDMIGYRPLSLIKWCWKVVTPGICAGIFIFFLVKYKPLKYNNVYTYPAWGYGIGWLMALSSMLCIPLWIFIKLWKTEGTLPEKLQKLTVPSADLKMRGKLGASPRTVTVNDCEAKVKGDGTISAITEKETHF

[3] = molecular target: T3, mGAT3 (Mus musculus, UniProt P31649); assay: [3H]GABA uptake assay in HEK-293 cells stably expressing mGAT3; format: cell-based; conditions: for IC50: [3H]GABA uptake, read-out: pIC50 ± SEM mGAT3 (converted)
T3 construct: expressed in transfected cells; host or cells: HEK-293
T3 sequence (P31649 1-602): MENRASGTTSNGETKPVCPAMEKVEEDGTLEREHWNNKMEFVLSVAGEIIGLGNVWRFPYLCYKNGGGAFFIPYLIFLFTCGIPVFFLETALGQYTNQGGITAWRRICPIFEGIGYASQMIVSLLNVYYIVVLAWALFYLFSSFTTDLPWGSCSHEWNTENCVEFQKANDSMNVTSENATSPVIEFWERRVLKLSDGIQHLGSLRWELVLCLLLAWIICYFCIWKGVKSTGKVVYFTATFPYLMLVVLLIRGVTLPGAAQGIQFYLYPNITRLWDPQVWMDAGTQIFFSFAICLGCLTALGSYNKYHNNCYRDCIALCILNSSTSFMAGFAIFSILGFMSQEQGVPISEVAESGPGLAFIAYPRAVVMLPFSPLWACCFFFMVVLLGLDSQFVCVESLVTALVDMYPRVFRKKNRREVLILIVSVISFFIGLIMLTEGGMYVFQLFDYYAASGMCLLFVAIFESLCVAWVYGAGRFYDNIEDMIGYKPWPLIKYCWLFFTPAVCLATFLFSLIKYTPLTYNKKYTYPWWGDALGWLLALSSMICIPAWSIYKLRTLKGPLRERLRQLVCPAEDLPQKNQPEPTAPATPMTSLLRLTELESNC

[4] = molecular target: T4, mGAT1 (Mus musculus, UniProt P31648); assay: competitive MS binding assay with NO711 as unlabeled marker (LC-ESI-MS/MS); conditions: for remaining NO711 binding mGAT1: in the presence of 100 μM inhibitor
T4 construct: expressed in transfected cells; host or cells: HEK-293
Protocol: Specific binding affinity toward mGAT1 was determined via a competitive mass spectrometry (MS) binding assay quantified by liquid chromatography–electrospray ionization tandem mass spectrometry (LC–ESI-MS/MS) with NO711 as an unlabeled marker.[50]
MS binding assays for mGAT1 were performed as described earlier.[50] Inhibition of mGAT1 binding by the synthesized compounds was determined in MS binding assays at a screening concentration of 100 μM and analyzed by LC–ESI-MS/MS.

[5] = molecular target: T4, mGAT1; assay: [3H]GABA uptake assay in HEK-293 cells stably expressing mGAT1; format: cell-based; conditions: for IC50: [3H]GABA uptake, read-out: pIC50 ± SEM mGAT1 (converted); for remaining [3H]GABA uptake mGAT1: in the presence of 100 μM inhibitor
[6] = in the presence of 100 μM inhibitor

Row | IC50 [1] [µM] | IC50 [2] [µM] | IC50 [3] [µM] | remaining NO711 binding mGAT1 [4] | IC50 [5] [µM] | remaining [3H]GABA uptake mGAT2 [1, 6] | remaining [3H]GABA uptake mGAT4 [2, 6] | remaining [3H]GABA uptake mGAT3 [3, 6] | remaining [3H]GABA uptake mGAT1 [5] | Ki ([4]; MS binding assay, read-out: pKi ± SEM mGAT1 (converted)) [µM] | Structure (SMILES)
1 | 58.9 | 15.8 | 28.2 | 100 μM: 73% | 19.5 | – | – | – | – | – | CC(O)CC(C(=O)NCc1ccccc1)N1CCC(=C2c3ccccc3CCc3ccccc32)CC1 (centres unmarked) [2RS,4SR-43a, N-Benzyl-2-(4-(10,11-dihydro-5H-dibenzo[a,d][7]annulen-5-ylidene)piperidin-1-yl)-4-hydroxypentanamide]
2 | – | – | – | 100 μM: 102% | – | 100 μM: 80% | 100 μM: 62% | 100 μM: 87% | 100 μM: 54% | – | CC(O)CC(C(=O)NCc1ccc(F)cc1)N1CCC(=C2c3ccccc3CCc3ccccc32)CC1 (centres unmarked) [2RS,4SR-43b, 2-(4-(10,11-Dihydro-5H-dibenzo[a,d][7]annulen-5-ylidene)piperidin-1-yl)-N-(4-fluorobenzyl)-4-hydroxypentanamide]
3 | 31.6 | 39.8 | 18.2 | 100 μM: 86% | 57.5 | – | – | – | – | – | CC(O)CC(C(=O)NCc1ccccc1)N(C)CCON=C(c1ccccc1)c1ccccc1 (centres unmarked) [2RS,4SR-45, N-Benzyl-2-[(2-{[(diphenylmethylidene)amino]oxy}ethyl)(methyl)amino]-4-hydroxypentanamide]
4 | 36.3 | 14.8 | 18.2 | 100 μM: 87% | 16.6 | – | – | – | – | – | CN(CCON=C(c1ccccc1)c1ccccc1)C(CCO)C(=O)NCc1ccccc1 (centres unmarked) [Compound 47a, N-Benzyl-2-[(2-{[(diphenylmethylidene)amino]oxy}ethyl)(methyl)amino]-4-hydroxybutanamide]
5 | 13.8 | 18.6 | 9.12 | 100 μM: 86% | 31.6 | – | – | – | – | – | CN(CCON=C(c1ccccc1)c1ccccc1)C(CCO)C(=O)NCc1ccccc1Cl (centres unmarked) [Compound 47b, N-[(2-Chlorophenyl)methyl]-2-[(2-{[(diphenylmethylidene)amino]oxy}ethyl)(methyl)amino]-4-hydroxybutanamide]
6 | 10.2 | 7.08 | 11 | 100 μM: 82% | 21.9 | – | – | – | – | – | CN(CCON=C(c1ccccc1)c1ccccc1)C(CCO)C(=O)NCc1ccc(Cl)c(Cl)c1 (centres unmarked) [Compound 47c, N-[(3,4-Dichlorophenyl)methyl]-2-[(2-{[(diphenylmethylidene)amino]oxy}ethyl)(methyl)amino]-4-hydroxybutanamide]
7 | 4.9 | 4.9 | 4.79 | – | 12.3 | – | – | – | – | 33.1 | CN(CCON=C(c1ccccc1)c1ccccc1)C(CCN)C(=O)NCc1ccc(Cl)c(Cl)c1 (centres unmarked) [Compound 50b, 4-Amino-N-[(3,4-dichlorophenyl)methyl]-2-[(2-{[(diphenylmethylidene)amino]oxy}ethyl)(methyl)amino]butanamide]
8 | 13.2 | 12.6 | 9.33 | 100 μM: 74% | 18.2 | – | – | – | – | – | CC(=O)NCCC(C(=O)NCc1ccccc1Cl)N(C)CCON=C(c1ccccc1)c1ccccc1 (centres unmarked) [Compound 51a, N-[(2-Chlorophenyl)methyl]-2-[(2-{[(diphenylmethylidene)amino]oxy}ethyl)(methyl)amino]-4-acetamidobutanamide]
9 | 12 | 11.2 | 6.76 | 100 μM: 72% | 11.7 | – | – | – | – | – | CC(=O)NCCC(C(=O)NCc1ccc(Cl)c(Cl)c1)N(C)CCON=C(c1ccccc1)c1ccccc1 (centres unmarked) [Compound 51b, N-[(3,4-Dichlorophenyl)methyl]-2-[(2-{[(diphenylmethylidene)amino]oxy}ethyl)(methyl)amino]-4-acetamidobutanamide]
10 | 16.6 | 44.7 | 16.2 | 100 μM: 86% | 15.1 | – | – | – | – | – | Cc1ccsc1C(=C1CCN(C(CO)C(=O)NCc2ccccc2)CC1)c1sccc1C (centres unmarked) [Compound 54a, N-Benzyl-2-{4-[bis(3-methylthiophen-2-yl)methylidene]piperidin-1-yl}-3-hydroxypropanamide]
11 | 43.7 | 95.5 | 63.1 | 100 μM: 100% | – | – | – | – | 100 μM: 53% | – | Cc1ccsc1C(=C1CCN(C(CO)C(=O)NCc2ccccc2Cl)CC1)c1sccc1C (centres unmarked) [Compound 54b, 2-{4-[Bis(3-methylthiophen-2-yl)methylidene]piperidin-1-yl}-N-[(2-chlorophenyl)methyl]-3-hydroxypropanamide]
12 | 13.8 | 28.8 | 16.2 | 100 μM: 96% | 17 | – | – | – | – | – | Cc1ccsc1C(=C1CCN(C(CO)C(=O)NCc2ccc(F)cc2)CC1)c1sccc1C (centres unmarked) [Compound 54c, 2-{4-[Bis(3-methylthiophen-2-yl)methylidene]piperidin-1-yl}-N-[(4-fluorophenyl)methyl]-3-hydroxypropanamide]
13 | 26.3 | 8.32 | 15.8 | 100 μM: 83% | 17.4 | – | – | – | – | – | CN(CCC=C1c2ccccc2C=Cc2ccccc21)C(CO)C(=O)NCc1ccccc1 (centres unmarked) [Compound 55a, 2-((3-(5H-Dibenzo[a,d][7]annulen-5-ylidene)propyl)(methyl)amino)-N-benzyl-3-hydroxypropanamide]
14 | 15.8 | 9.55 | 10.7 | 100 μM: 65% | 25.7 | – | – | – | – | – | CN(CCC=C1c2ccccc2C=Cc2ccccc21)C(CO)C(=O)NCc1ccccc1Cl (centres unmarked) [Compound 55b, 2-((3-(5H-Dibenzo[a,d][7]annulen-5-ylidene)propyl)(methyl)amino)-N-(2-chlorobenzyl)-3-hydroxypropanamide]
15 | 60.3 | 16.6 | 15.1 | 100 μM: 49% | 28.8 | – | – | – | – | – | CN(CCC=C1c2ccccc2C=Cc2ccccc21)C(CO)C(=O)NCc1ccc(Cl)cc1 (centres unmarked) [Compound 55c, 2-((3-(5H-Dibenzo[a,d][7]annulen-5-ylidene)propyl)(methyl)amino)-N-(4-chlorobenzyl)-3-hydroxypropanamide]
16 | 20.4 | 17 | 10.5 | 100 μM: 90% | 26.3 | – | – | – | – | – | CN(CCC=C1c2ccccc2C=Cc2ccccc21)C(CO)C(=O)NCc1ccc(F)cc1 (centres unmarked) [Compound 55d]
